Read-outs that look alike come from different tables or passages of the source.
Assays:
Assay in all cases: CellTiter-Glo assay, drug administered alone
Type in all cases: cell-based
[1] = test system: HL-60 leukemia cell line; conditions: Homo sapiens
[2] = test system: BDCM leukemia cell line; conditions: 72 h
Method: (§1) The first and second tests were performed in triplicate on the above cell lines while reducing the concentration of venetoclax by half each time from 100 μM, and the third test was performed in triplicate on the BDCM cell line while reducing the concentration of venetoclax by half each time from 100 μM, and performed in triplicate on HL-60, MolM13, MolM14, and MV4-11 cell lines while reducing the concentration of venetoclax by half each time from 2.5 μM. The fourth test was performed in triplicate on HL-60, MolM13, MolM14, and MV4-11 cell lines while reducing the concentration by half each time from 2.5 μM.
(§2) Specifically, in the first and second tests, a 10-fold diluted solution was prepared by dissolving 50 μL of 10 mM venetoclax in 450 μL of solvent. 250 μL of the solution was serially diluted ½, an 8E-tube was filled with 250 μL of each dilution, and 80 μL of each cell line was dispensed into each well of a 96-well plate. Thereafter, 10 μL of each cell line was dispensed using JANUS and incubated for 72 hours under CO2. Celltiter-Glo assay was performed and then IC50 was calculated.
(§3) In the third test, for the BCDM cell line, a 10-fold diluted solution was prepared by dissolving 15 μL of 10 mM venetoclax in 135 μL of solvent. 100 μL of the solution was serially diluted ½, an 8E-tube was filled with 100 μL of each dilution, and the cell line was dispensed into a 96-well plate. Thereafter, 25 μL of the cell line was dispensed using JANUS and incubated for 72 hours under CO2. Celltiter-Glo assay was performed and then IC50 was calculated. Meanwhile, for the HL-60, MolM13, MolM14, and MV4-11 cell lines, a 10-fold diluted solution was prepared by dissolving […] of solvent. 200 μL of the solution was serially diluted ½, an 8E-tube was filled with 200 μL of each dilution, and each of the cell lines was dispensed into a 96-well plate. Thereafter, 60 μL of each cell line was dispensed using JANUS and incubated for 72 hours under CO2. Celltiter-Glo assay was performed and then IC50 was calculated.
(§4) The first and second tests were performed in triplicate on the above cell lines while reducing the concentration of 5-azacytidine by half each time from 100 μM. Specifically, in the first and second tests, a 10-fold diluted solution was prepared by dissolving 15 μL of 20 mM 5-azacytidine in 285 μL of solvent. 250 μL of the solution was serially diluted ½, an 8E-tube was filled with 250 μL of each dilution, and 80 μL of each cell line (3,000 cells) was dispensed into each well of a 96-well plate. Thereafter, 10 μL of each cell line was dispensed using JANUS and incubated for 72 hours under CO2. Celltiter-Glo assay was performed and then IC50 was calculated.
as §4, with “cytarabine” for “5-azacytidine”, “50,000” for “100”, “10” for “15”, “50” for “20”, “490” for “285”

[3] = test system: U937 leukemia cell line; conditions: Homo sapiens, U-937, 72 h
Method: as §1, §2, §4
as §4, with “cytarabine” for “5-azacytidine”, “50,000” for “100”, “10” for “15”, “50” for “20”, “490” for “285”

[4] = test system: THP-1 leukemia cell line; conditions: Homo sapiens, THP-1, 72 h
Method: as §1, §2, §4
as §4, with “cytarabine” for “5-azacytidine”, “50,000” for “100”, “10” for “15”, “50” for “20”, “490” for “285”

[5] = test system: MV4-11 leukemia cell line; conditions: Homo sapiens
Method: as §1, §2, §3
(§5) The fourth test was performed on HL-60, MolM13, MolM14, and MV4-11 cell lines in the same manner as the third test.
as §4
as §4, with “cytarabine” for “5-azacytidine”, “50,000” for “100”, “10” for “15”, “50” for “20”, “490” for “285”

[6] = test system: MolM14 leukemia cell line; conditions: Homo sapiens
Method: as §1, §2, §3, §5, §4
as §4, with “cytarabine” for “5-azacytidine”, “50,000” for “100”, “10” for “15”, “50” for “20”, “490” for “285”

[7] = test system: HL-60 leukemia cell line; conditions: Homo sapiens, HL-60, 72 h, 72 hours
Method: as §1, §2, §3, §5, §4
as §4, with “cytarabine” for “5-azacytidine”, “50,000” for “100”, “10” for “15”, “50” for “20”, “490” for “285”

[8] = test system: MolM13 leukemia cell line; conditions: Homo sapiens
Method: as §1, §2, §3, §5, §4
as §4, with “cytarabine” for “5-azacytidine”, “50,000” for “100”, “10” for “15”, “50” for “20”, “490” for “285”

[9] = test system: U937 leukemia cell line; conditions: Homo sapiens
[10] = test system: BDCM leukemia cell line
[11] = test system: THP-1 leukemia cell line; conditions: Homo sapiens
[12] = 5-azacytidine alone, read-out: IC50 First test
[13] = 5-azacytidine alone, read-out: IC50 Second test
[14] = azacitidine administered alone, Table 10, read-out: IC50 Azacitidine
[15] = cytarabine alone, read-out: IC50 First test
[16] = cytarabine alone, read-out: IC50 Second test
[17] = cytarabine administered alone, Table 13, read-out: IC50 Cytarabine

Nc1ncn([C@@H]2O[C@H](CO)[C@@H](O)[C@H]2O)c(=O)n1 [5-azacytidine]
IC50 ([1]; HL-60, azacitidine administered alone, Table 10, read-out: IC50 Azacitidine): 9660 nM | IC50 [2, 12]: 14800 nM | IC50 [2, 13]: 23600 nM | IC50 [3, 12]: 1910 nM | IC50 [3, 13]: 2540 nM | IC50 [4, 12]: 6080 nM | IC50 [4, 13]: 6380 nM | IC50 ([5]; 5-azacytidine alone, 72 hours, read-out: IC50 First test): 3050 nM | IC50 ([5]; 5-azacytidine alone, 72 hours, read-out: IC50 Second test): 2450 nM | IC50 [5, 14]: 2050 nM | IC50 ([6]; MOLM-14, 72 h, 5-azacytidine alone, MolM14, 72 hours, read-out: IC50 First test): 3880 nM | IC50 ([6]; MOLM-14, 72 h, 5-azacytidine alone, MolM14, 72 hours, read-out: IC50 Second test): 2820 nM | IC50 ([6]; MOLM-14, azacitidine administered alone, MolM 14, Table 10, read-out: IC50 Azacitidine): 1590 nM | IC50 [7, 12]: 14700 nM | IC50 [7, 13]: 13200 nM | IC50 ([8]; MOLM-13, 5-azacytidine alone, MolM13, 72 hours, read-out: IC50 First test): 1710 nM | IC50 ([8]; MOLM-13, 5-azacytidine alone, MolM13, 72 hours, read-out: IC50 Second test): 1410 nM | IC50 ([8]; azacitidine administered alone, MolM 13, Table 10, read-out: IC50 Azacitidine): 1380 nM | IC50 ([9]; U-937, azacitidine administered alone, Table 10, read-out: IC50 Azacitidine): 3060 nM | IC50 [10, 14]: 98200 nM | IC50 ([11]; THP-1, azacitidine administered alone, Table 10, read-out: IC50 Azacitidine): 3380 nM

Nc1ccn([C@@H]2O[C@H](CO)[C@@H](O)[C@@H]2O)c(=O)n1 [Cytarabine]
IC50 ([1]; HL-60, cytarabine administered alone, Table 13, read-out: IC50 Cytarabine): 170 nM | IC50 [2, 15]: 2830 nM | IC50 [2, 16]: 4480 nM | IC50 [3, 15]: 18.3 nM | IC50 [3, 16]: 18.4 nM | IC50 [4, 15]: 11.2 nM | IC50 [4, 16]: 15.3 nM | IC50 [5, 17]: 81 nM | IC50 ([5]; cytarabine alone, 72 hours, read-out: IC50 First test): 100 nM | IC50 ([5]; cytarabine alone, 72 hours, read-out: IC50 Second test): 108 nM | IC50 ([6]; MOLM-14, 72 h, cytarabine alone, MolM14, 72 hours, read-out: IC50 First test): 99 nM | IC50 ([6]; MOLM-14, 72 h, cytarabine alone, MolM14, 72 hours, read-out: IC50 Second test): 93.3 nM | IC50 ([6]; MOLM-14, cytarabine administered alone, MolM 14, Table 13, read-out: IC50 Cytarabine): 84.7 nM | IC50 [7, 15]: 221 nM | IC50 [7, 16]: 163 nM | IC50 ([8]; MOLM-13, cytarabine alone, MolM13, 72 hours, read-out: IC50 First test): 39 nM | IC50 ([8]; MOLM-13, cytarabine alone, MolM13, 72 hours, read-out: IC50 Second test): 41.8 nM | IC50 ([8]; cytarabine administered alone, MolM 13, Table 13, read-out: IC50 Cytarabine): 29.6 nM | IC50 ([9]; U-937, cytarabine administered alone, Table 13, read-out: IC50 Cytarabine): 9.25 nM | IC50 [10, 17]: 2340 nM | IC50 ([11]; THP-1, cytarabine administered alone, Table 13, read-out: IC50 Cytarabine): 10.6 nM

— US20250312327A1, “COMPOSITION FOR COMBINATION THERAPY, COMPRISING 2,3,5-SUBSTITUTED THIOPHENE COMPOUND” (PHAROS IBIO CO., LTD, priority 2021, published 2025)
